Legend:
DOHH-2 tumor cells = test: Subcutaneous xenograft DOHH-2 Lymphoma Model; type: in vivo, mouse; conditions: CB17/SCID mice
Procedure: The in vivo efficacy of certain Example compounds was assessed in a subcutaneous xenograft DOHH-2 Lymphoma Model using 10 female 6-8 week old CB17/SCID Mice. Each mouse was inoculated subcutaneously at the right front region with DOHH-2 tumor cells (5×10^6) in 0.1 ml of PBS mixed with matrigel (1:1 PBS:matrigel) for tumor development. The test compound administration started once the mean tumor size reached approximately 100-150 mm^3. Compounds were administered either IP (vehicle 10 mM sodium phosphate+0.2% Tween-80 (pH7.4) or orally (vehicle 15 Na2HPO4 buffer (10 mM) (pH 4.5)+0.2% tween 80). Tumor volumes were measured in two dimensions using a caliper, and the volume expressed in mm^3 using the formula: V=(L×W×W)/2, where V is tumor volume, L is tumor length (the longest tumor dimension) and W is tumor width (the longest tumor dimension perpendicular to L). Mice were dosed with Example 21 orally (12.5 or 25 mg/kg) once a day for 9 consecutive days (FIG. 3). Example 5 was dosed intraperitoneally (7 or 20 mg/kg) in a cycle consisting of administration QD for three days followed by a three day no-dosing period followed by QD dosing for a further three days (FIG. 4). Example 12 was dosed intraperitoneally (0.7 or 2 mg/kg) in a cycle consisting of administration QD for three days followed by a three day no-dosing period followed by QD dosing for a further three days (FIG. 5). In a separate study Example 12 was dosed at […] in a cycle consisting of administration QD for two days followed by either four or six day no-dosing period, and this cycle was repeated three times (FIG. 6).
The protocol and any amendment(s) or procedures involving the care and use of animals in this study were reviewed and approved by the Institutional Animal Care and Use Committee (IACUC) of CrownBio prior to execution. During the study, the care and use of animals was conducted in accordance with the regulations of the Association for Assessment and Accreditation of Laboratory Animal Care (AAALAC).

[1] = test system: BT474 breast cancer cells; test: Orthotopic breast cancer xenograft model (BT474), tumour volume; type: in vivo, mouse; conditions: 2.0 mg/kg IV, 2 days dosing then 5 day holiday; stopped at day 13
Procedure: NOD/SCID mice were implanted with estrogen pellets (17β-estradiol, 60 day release, 0.36 mg) subcutaneously in the right flank one day before the tumour inoculation. On day −8 each mouse was then injected in the right mammary fat pad with 1×10^7 viable BT474 breast cancer cells resuspended in 0.2 mL of Phosphate Buffered Saline mixed with matrigel (1:1). Mice were assigned to treatment groups when tumour volumes averaged 149.78 mm^3 on study day 0. […] The study was terminated on Study Day 35. […] Each group was comprised of 10 mice. Tumour volumes in mice were measured three times per week and tumour volume was calculated using the formula 0.5 (L×W^2). […] Statistical analyses were carried out on tumour readings for Groups 1, 2, 3, 4 and 5 up to Study Day 23 (after this point >50% of the animals within one of the study groups were lost; Group 2) using two-way ANOVA, or a Mixed-Effects model was fitted when values were missing from groups (PRISM GraphPad Software Inc.). Statistical analysis of Group 6 was conducted until day 12 (at this point the study was terminated due to the significant loss of observed body weight). Using a ROUT outlier analysis in GraphPad Prism, one mouse in Group 5 was identified as an outlier across all timepoints (at the 5% confidence level) and has therefore been excluded from analysis. […]

[2] = Body weight in BT474 xenograft study; type: in vivo, mouse; conditions: 2 mg/kg IV, 2 days dosing then 5 day holiday; terminated early
Procedure: During the study, body weights were measured three times weekly for all animals. Animals were given Diet Gel for the entire duration on the study.

human NMT1 (HsNMT1) = molecular target: T1, human NMT1 (HsNMT1) (Homo sapiens, UniProt P30419); test: HsNMT1 sensitive fluorescence-based assay (CoA detection with CPM); type: biochemical
T1 sequence (P30419 1-496): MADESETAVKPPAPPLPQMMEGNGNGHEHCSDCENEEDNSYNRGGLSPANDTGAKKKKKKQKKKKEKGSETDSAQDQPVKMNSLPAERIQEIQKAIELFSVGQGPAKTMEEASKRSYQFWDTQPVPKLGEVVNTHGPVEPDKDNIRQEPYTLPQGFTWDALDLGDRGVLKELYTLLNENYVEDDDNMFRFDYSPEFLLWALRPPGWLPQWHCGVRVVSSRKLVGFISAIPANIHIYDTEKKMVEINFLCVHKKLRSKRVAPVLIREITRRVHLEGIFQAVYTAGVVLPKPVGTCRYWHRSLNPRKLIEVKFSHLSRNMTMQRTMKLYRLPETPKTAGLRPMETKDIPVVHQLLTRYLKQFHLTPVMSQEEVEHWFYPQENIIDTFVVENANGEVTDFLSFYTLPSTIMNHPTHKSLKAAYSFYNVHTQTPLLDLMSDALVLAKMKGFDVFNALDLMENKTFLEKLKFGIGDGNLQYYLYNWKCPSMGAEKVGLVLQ

VcaP tumour cells = test: VcaP prostate cancer xenograft model, tumour volume; type: in vivo, mouse; conditions: for ΔTGI (Study Day 17): CB17/SCID mice
Text: All mice received two doses of test agent, on Study Day 1 and Study Day 8. The study was terminated on Study Day 30.

LNCaP tumour cells = test: LNCaP prostate cancer xenograft model, tumour volume; type: in vivo, mouse; conditions: for Day 28 tumour volume (mm^3, mean ± SEM) / Tumour growth inhibition (TGI, %): IV, Q7D (x3); for Day 28 tumour volume (mm^3, mean ± SEM): NOD SCID mice; for Tumour growth inhibition (TGI, %): day 28
Text: A total of 84 male NOD SCID mice aged 5-8 weeks and weighing 25-30 g were used for the study.

JIMT-1 tumour cells = test: JIMT-1 breast cancer xenograft model, tumour volume; type: in vivo, mouse
Procedure: 80 mice were assigned to 8 treatment groups when tumour volumes averaged ˜160.66 mm^3 on Study Day 0. Dosing commenced the following day and all animals were dosed intravenously with ADC Example 3, sacituzumab govitecan or unconjugated sacituzumab. The study was terminated on the Study Day 60.

[3] = intraperitoneal dosing, Example 5 7 or 20 mg/kg, Example 12 0.7 or 2 mg/kg, QD cycles

For `CNCc1cnc2ccc(-c3ccc(F)c(F)c3OCCc3c(C(O)C(C)(C)C)nn(C)c3C)cn12` (single isomer, unassigned) [Example 12, 1-(4-(2-(2,3-difluoro-6-(3-((methylamino)methyl)imidazo[1,2-a]pyridin-6-yl)phenoxy)ethyl)-1,5-dimethyl-1H-pyrazol-3-yl)-2,2-dimethylpropan-1-ol], the “tumour volume compared to vehicle” value (DOHH-2 tumor cells; [3]) was “significant reduction in tumour volume or reduced growth in tumour volume”, the tumour size [1] was “reduced tumour size” and the body weights [2] was “decreased significantly”. The IC50 (human NMT1 (HsNMT1)) was 2.1 nM.

For `CNCc1cnc2ccc(-c3ccc(F)cc3OCCc3c(C(C)O)nn(C)c3C)cn12` (stereo not shown) [Example 1, 1-{4-[2-(5-fluoro-2-{3-[(methylamino)methyl]imidazo[1,2-a]pyridin-6-yl}phenoxy)ethyl]-1,5-dimethyl-1H-pyrazol-3-yl}ethan-1-ol], the IC50 (human NMT1 (HsNMT1)) was 2.2 nM.

For `CNCc1cnc2ccc(-c3ccc(F)c(F)c3OCCc3c(C(C)O)nn(C)c3C)cn12` (stereo not shown) [Example 5, 1-{4-[2-(2,3-difluoro-6-{3-[(methylamino)methyl]imidazo[1,2-a]pyridin-6-yl}phenoxy)ethyl]-1,5-dimethyl-1H-pyrazol-3-yl}ethan-1-ol], the “tumour volume compared to vehicle” value (DOHH-2 tumor cells; [3]) was “significant reduction in tumour volume or reduced growth in tumour volume” and the IC50 (human NMT1 (HsNMT1)) was 2.2 nM.

`Cc1c(CCOc2cc(F)ccc2-c2ccc3ncc(CCN)n3c2)c(C(C)O)nn1C` (stereo not shown) [Example 7, 1-(4-(2-(2-(3-(2-aminoethyl)imidazo[1,2-a]pyridin-6-yl)-5-fluorophenoxy)ethyl)-1,5-dimethyl-1H-pyrazol-3-yl)ethan-1-ol] showed an IC50 (human NMT1 (HsNMT1)) of 9 nM.

Molecule `Cc1c(CCOc2c(-c3ccc4ncc(CN)n4c3)ccc(F)c2F)c(C(O)C(C)(C)C)nn1C` (stereo not shown) [Example 17, 1-(4-(2-(6-(3-(aminomethyl)imidazo[1,2-a]pyridin-6-yl)-2,3-difluorophenoxy)ethyl)-1,5-dimethyl-1H-pyrazol-3-yl)-2,2-dimethylpropan-1-ol] has an IC50 (human NMT1 (HsNMT1)) of 2 nM.

`Cc1c(CCOc2c(-c3ccc4ncc(CN)n4c3)ccc(F)c2F)c(C(C)(C)O)nn1C` [Example 20, 2-[4-(2-{6-[3-(aminomethyl)imidazo[1,2-a]pyridin-6-yl]-2,3-difluorophenoxy}ethyl)-1,5-dimethyl-1H-pyrazol-3-yl]propan-2-ol] gave an IC50 (human NMT1 (HsNMT1)) of 2 nM.

In the case of `CNCc1cnc2ccc(-c3ccc(F)c(F)c3OCCc3c(C(C)(C)O)nn(C)c3C)cn12` [Example 21, 2-(4-(2-(2,3-difluoro-6-(3-((methylamino)methyl)imidazo[1,2-a]pyridin-6-yl)phenoxy)ethyl)-1,5-dimethyl-1H-pyrazol-3-yl)propan-2-ol], the “tumour volume compared to vehicle” value (DOHH-2 tumor cells; oral dosing 12.5 or 25 mg/kg once a day for 9 days) is reported as “significant reduction in tumour volume or reduced growth in tumour volume”.

Molecule `CCNCc1cnc2ccc(-c3ccc(F)cc3OCCc3c(C(C)(C)O)nn(C)c3C)cn12` [Example 22, 2-{4-[2-(2-{3-[(ethylamino)methyl]imidazo[1,2-a]pyridin-6-yl}-5-fluorophenoxy)ethyl]-1,5-dimethyl-1H-pyrazol-3-yl}propan-2-ol] has an IC50 (human NMT1 (HsNMT1)) of 3 nM.

`CNCc1cnc2ccc(-c3ccc(F)c(F)c3OCCc3c(C(O)C(C)C)nn(C)c3C)cn12` (stereo not shown) [Example 25, 1-{4-[2-(2,3-difluoro-6-{3-[(methylamino)methyl]imidazo[1,2-a]pyridin-6-yl}phenoxy)ethyl]-1,5-dimethyl-1H-pyrazol-3-yl}-2-methylpropan-1-ol] gave an IC50 (human NMT1 (HsNMT1)) of 2 nM.

With “ifinatamab: antibody binding CD276 (B7-H3); heavy chain SEQ ID NO: 6, light chain SEQ ID NO: 5” the “tumour volume compared to vehicle alone” value (VcaP tumour cells; 2.5 mg/kg) was “no significant difference”, the “ΔTGI (Study Day 17)” value (VcaP tumour cells; 2.5 mg/kg IV QW x 2 weeks) was 8.47% and the “tumour volume compared to vehicle alone” value (VcaP tumour cells; 5 mg/kg) was “no significant difference”. The “ΔTGI (Study Day 17)” value (VcaP tumour cells; 5 mg/kg IV QW x 2 weeks) was 12.44%, the “effect on LNCaP tumour volume compared to vehicle” value (“effect … compared to vehicle” for short) (LNCaP tumour cells; 5 mg/kg) was “no significant effect” and the “Day 28 tumour volume (mm^3, mean ± SEM)” value (LNCaP tumour cells; 5 mg/kg) was 551.4 ± 73.1 mm^3. The “Tumour growth inhibition (TGI, %)” value (LNCaP tumour cells; 5 mg/kg) was 30.6%, the “effect … compared to vehicle” value (LNCaP tumour cells; 10 mg/kg) was “no significant effect” and the “Day 28 tumour volume (mm^3, mean ± SEM)” value (LNCaP tumour cells; 10 mg/kg) was 666.56 ± 103.2 mm^3. For the same molecule, the “Tumour growth inhibition (TGI, %)” value (LNCaP tumour cells; 10 mg/kg) was 13.0%.

With sacituzumab the “tumour volume compared to vehicle alone” value (JIMT-1 tumour cells; 2.5 mg/kg) was “no significant difference” and the “tumour volume compared to vehicle alone” value (JIMT-1 tumour cells; 5 mg/kg) was “significant decrease in tumour volume”.

In the case of “sacituzumab govitecan [reference compound]”, the “tumour volume compared to vehicle alone” value (JIMT-1 tumour cells; 2.5 mg/kg) is reported as “significant decrease in tumour volume” and the “tumour volume compared to vehicle alone” value (JIMT-1 tumour cells; 5 mg/kg) is reported as “significant decrease in tumour volume”.

B1: ifinatamab-DXd (conjugate, chains of the INN, looked up)
VH: QVQLVQSGAEVKKPGSSVKVSCKASGYTFTNYVMHWVRQAPGQGLEWMGYINPYNDDVKYNEKFKGRVTITADESTSTAYMELSSLRSEDTAVYYCARWGYYGSPLYYFDYWGQGTLVTVSS
VL: EIVLTQSPATLSLSPGERATLSCRASSRLIYMHWYQQKPGQAPRPLIYATSNLASGIPARFSGSGSGTDFTLTISSLEPEDFAVYYCQQWNSNPPTFGQGTKVEIK
modifications: deruxtecan (DXd) payload
With B1 the “tumour volume compared to vehicle alone” value (VcaP tumour cells; 2.5 mg/kg) was “no significant difference”, the “ΔTGI (Study Day 17)” value (VcaP tumour cells; 2.5 mg/kg IV QW x 2 weeks) was 5.24% and the “tumour volume compared to vehicle alone” value (VcaP tumour cells; 5 mg/kg) was “significantly higher tumour volume”. For the same molecule, the “ΔTGI (Study Day 17)” value (VcaP tumour cells; 5 mg/kg IV QW x 2 weeks) was 2.86%, the “effect … compared to vehicle” value (LNCaP tumour cells; 5 mg/kg) was “slowed the growth of LNCaP tumours to a lesser extent” and the “Day 28 tumour volume (mm^3, mean ± SEM)” value (LNCaP tumour cells; 5 mg/kg) was 364.6 ± 51.7 mm^3. For the same molecule, the “Tumour growth inhibition (TGI, %)” value (LNCaP tumour cells; 5 mg/kg) was 58.8%, the “effect … compared to vehicle” value (LNCaP tumour cells; 10 mg/kg) was “significantly reduced the mean volume” and the “Day 28 tumour volume (mm^3, mean ± SEM)” value (LNCaP tumour cells; 10 mg/kg) was 259.5 ± 50.3 mm^3. The “Tumour growth inhibition (TGI, %)” value (LNCaP tumour cells; 10 mg/kg) was 75.0%.
